# Activity calls are given as the source filed them. The rule behind the calls is not given here. Non-standard residues stand in square brackets, D forms with d. Residues, ends and D or L forms follow the SMILES beside them. Aib = CC(C)(N)C(=O)O
# How the values were obtained:
# [1] = biological target: T1, Glucagon-like peptide 2 receptor (Homo sapiens, UniProt O95838); assay: Agonist activity at human GLP2 receptor expressed in HEK293 cells assessed as increase in intracellular cAMP accumulation by AlphaScreen assay; type: functional, cell-based
# T1 sequence (O95838 whole entry): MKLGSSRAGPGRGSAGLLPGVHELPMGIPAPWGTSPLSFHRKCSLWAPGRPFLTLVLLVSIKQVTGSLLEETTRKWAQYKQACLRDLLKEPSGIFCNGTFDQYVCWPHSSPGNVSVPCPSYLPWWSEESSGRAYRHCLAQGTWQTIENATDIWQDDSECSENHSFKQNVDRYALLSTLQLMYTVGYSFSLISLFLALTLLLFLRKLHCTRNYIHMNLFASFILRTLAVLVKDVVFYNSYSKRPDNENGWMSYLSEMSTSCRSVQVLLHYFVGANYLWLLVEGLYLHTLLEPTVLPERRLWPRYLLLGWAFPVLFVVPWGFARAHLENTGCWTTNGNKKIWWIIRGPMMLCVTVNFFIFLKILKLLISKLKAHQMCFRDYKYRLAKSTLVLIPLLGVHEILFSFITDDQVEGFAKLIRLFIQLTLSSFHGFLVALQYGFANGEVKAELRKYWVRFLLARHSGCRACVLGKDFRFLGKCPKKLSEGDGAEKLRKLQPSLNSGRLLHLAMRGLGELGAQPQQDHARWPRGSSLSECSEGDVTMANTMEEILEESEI
# Mus musculus [2] = assay: Antidiabetic activity in diet-induced obese C57BL/6J mouse assessed as decrease in insulin resistance by measuring lower HOMA-IR index at 250 to 500 nmol/kg, sc bid for 14 days fasted overnight on day 11 to 12 and measured on day 14; type: functional, organism-based
# Rattus norvegicus = assay: In vivo agonist activity at GLP2R in Wistar rat assessed as increase in small intestinal wet weight administered sc once daily for 4 days measured on day 5; type: functional, organism-based
# Mus musculus [3] = assay: Antidiabetic activity in diet-induced obese C57BL/6J mouse assessed as decrease in plasma insulin level at 250 to 500 nmol/kg, sc bid for 14 days fasted overnight on day 11 to 12 and measured on day 14; type: functional, organism-based
# Mus musculus [4] = assay: In vivo agonist activity at GLP2R in diet-induced obese C57BL/6J mouse assessed as increase in small intestinal wet weight at 250 to 500 nmol/kg, sc bid for 14 days; type: functional, organism-based
# Mus musculus [5] = assay: Antidiabetic activity in diet-induced obese C57BL/6J mouse assessed as decrease in fasting blood glucose level at 250 to 500 nmol/kg, sc bid for 14 days fasted overnight on day 11 to 12 and measured on day 14; type: functional, organism-based
# Mus musculus [6] = assay: In vivo agonist activity at GLP2R in diet-induced obese C57BL/6J mouse assessed as increase in large intestinal wet weight at 250 to 500 nmol/kg, sc bid for 14 days; type: functional, organism-based
# Mus musculus [7] = assay: Antidiabetic activity in C57BL/6J mouse assessed as reduction in blood glucose level at 1000 nmol/kg, sc administered as single dose 1 hr prior to glucose challenge measured up to 120 mins post glucose challenge by OGTT; type: functional, organism-based
compound,measurement,setting,value
CC[C@H](C)[C@H](NC(=O)[C@H](Cc1ccccc1)NC(=O)[C@H](CC(=O)O)NC(=O)[C@H](CCCNC(=N)N)NC(=O)[C@H](C)NC(=O)[C@H](C)NC(=O)[C@H](CCC(N)=O)NC(=O)[C@H](CC(N)=O)NC(=O)[C@H](CC(=O)O)NC(=O)[C@H](CC(C)C)NC(=O)[C@@H](NC(=O)[C@@H](NC(=O)[C@H](CC(N)=O)NC(=O)[C@H](CCSC)NC(=O)[C@H](CCC(=O)O)NC(=O)[C@H](CC(=O)O)NC(=O)[C@H](CO)NC(=O)[C@H](Cc1ccccc1)NC(=O)[C@H](CO)NC(=O)CNC(=O)[C@H](CC(=O)O)NC(=O)C(C)(C)N)[C@@H](C)O)[C@@H](C)CC)C(=O)N[C@@H](CC(N)=O)C(=O)N[C@@H](Cc1c[nH]c2ccccc12)C(=O)N[C@@H](CC(C)C)C(=O)N[C@H](C(=O)N[C@@H](CCC(N)=O)C(=O)N[C@H](C(=O)N[C@@H](CCCCN)C(=O)N[C@H](C(=O)N[C@H](C(=O)N[C@@H](CC(=O)O)C(=O)O)[C@@H](C)O)[C@@H](C)CC)[C@@H](C)O)[C@@H](C)CC (H-[Aib]DGSFSDEMNTILDNQAARDFINWLIQTKITD-OH),EC50,[1],0.12 nM
H-HGDGSFSSELATILDGKAARDFINWLIQTKITD-OH,Activity,Mus musculus [2],Active
same,Activity,Rattus norvegicus,Dose-dependent effect
same,Activity,Mus musculus [3],Active
same,Activity,Mus musculus [4],Active
same,Activity,Mus musculus [5],Active
same,Activity,Mus musculus [6],Active
H-HGDGSFSDEMNTILDGQAARDFINWLIQTK-NH2,Activity,Mus musculus [7],Active

# — ChEMBL document CHEMBL4257228, “Glucagon-like-peptide-2 (glp-2) analogues” (2016)
